# Measurements published in patent US20040209914A1, “Aromatic sulfone hydroxamic acids and their use as protease inhibitors” (priority 2000, published 2004).
# Like-named read-outs stand apart in the source and are kept apart here.
# Legend:
# Assay in all cases: biochemical
# Recombinant human MMP-1 = biological target: T1, Recombinant human MMP-1 (Homo sapiens, UniProt P03956); conditions: fluorogenic MCA-peptide substrate, pH 7.5, room temperature
# T1 construct: made in house; host or cells: transfected HT-1080 cells
# T1 sequence (P03956 100-469): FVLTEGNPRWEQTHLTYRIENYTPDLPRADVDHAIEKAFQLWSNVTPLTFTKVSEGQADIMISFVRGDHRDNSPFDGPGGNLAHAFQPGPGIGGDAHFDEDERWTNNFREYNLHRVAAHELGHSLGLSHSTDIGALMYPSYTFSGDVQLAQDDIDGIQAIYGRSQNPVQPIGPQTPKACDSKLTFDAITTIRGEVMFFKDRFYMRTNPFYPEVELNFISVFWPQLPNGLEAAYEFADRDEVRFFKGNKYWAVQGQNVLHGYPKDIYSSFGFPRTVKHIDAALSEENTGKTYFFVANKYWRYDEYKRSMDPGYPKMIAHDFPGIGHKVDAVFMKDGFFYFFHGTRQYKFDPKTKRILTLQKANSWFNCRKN
# Protocol: Recombinant human MMP-1, MMP-2, MMP-9, MMP-13, and were used in this assay. These enzymes were prepared in the Assignee's es following usual laboratory procedures. Specifics for preparing and e enzymes can be found in the scientific literature describing these See, e.g., Enzyme Nomenclature (Academic Press, San Diego, Calif., d the citations therein).
# The MMP-1 was obtained from MMP-1 expressing transfected HT-1080 cells provided by Dr. Harold Welgus of Washington University in St. Louis, Mo. The MMP-1 was activated using 4-aminophenylmercuric acetate (APMA), and then purified over a hydroxamic acid column.
# The enzyme substrate was a methoxycoumarin-containing polypeptide having the following sequence:
# MCA-ProLeuGlyLeuDpaAlaArgNH2
# Here, “MCA” is methoxycoumarin and “Dpa” is 3-(2,4-dinitrophenyl)-L-2,3-diaminopropionyl alanine.
# These solutions were then compared to a control (which contained equal amount of DMSO/buffer solution, but no hydroxamate compound) using Microfluor™ White Plates (Dynatech, Chantilly, Va.). Specifically, The MMPs were activated with APMA or trypsin. […] The control likewise was incubated at room temperature in separate plates with the MMP and 4 uM of the MMP substrate. […] Inhibition was measured as a reduction in fluorescent intensity as a function of inhibitor concentration using a Perkin Elmer (Norwalk, Conn.) L550 plate reader. The IC50's were then calculated from these measurements.
# Recombinant human MMP-2 = biological target: T2, Recombinant human MMP-2 (Homo sapiens, UniProt P08253); conditions: fluorogenic MCA-peptide substrate, pH 7.5, room temperature
# T2 construct: made in house
# T2 sequence (P08253 110-660): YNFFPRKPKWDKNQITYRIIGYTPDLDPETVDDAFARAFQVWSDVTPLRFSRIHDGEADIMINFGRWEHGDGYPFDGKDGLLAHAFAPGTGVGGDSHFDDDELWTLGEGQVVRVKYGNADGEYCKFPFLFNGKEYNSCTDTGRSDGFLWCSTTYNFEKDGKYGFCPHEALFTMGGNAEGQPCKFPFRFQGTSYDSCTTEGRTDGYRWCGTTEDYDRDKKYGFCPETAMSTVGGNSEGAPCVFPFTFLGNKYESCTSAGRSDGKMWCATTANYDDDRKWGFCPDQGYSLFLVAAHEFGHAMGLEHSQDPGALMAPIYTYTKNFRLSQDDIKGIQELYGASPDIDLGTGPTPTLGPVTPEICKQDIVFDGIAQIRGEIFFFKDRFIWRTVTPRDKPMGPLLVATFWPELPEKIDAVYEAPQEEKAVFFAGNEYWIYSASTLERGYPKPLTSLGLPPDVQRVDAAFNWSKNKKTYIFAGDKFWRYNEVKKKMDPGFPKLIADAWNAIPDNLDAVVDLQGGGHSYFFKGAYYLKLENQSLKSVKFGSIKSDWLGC
# How it was run: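 Activated (APMA or trypsin) recombinant human MMP-2, from transfected expressing cells, incubated at room temperature with 4 uM fluorogenic substrate MCA-Pro-Leu-Gly-Leu-Dpa-Ala-Arg-NH2 and hydroxamate inhibitor.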
# Recombinant human MMP-13 = biological target: T3, Recombinant human MMP-13 (Homo sapiens, UniProt P45452); conditions: fluorogenic MCA-peptide substrate, pH 7.5, room temperature; read-out: MMP-13 IC50
# T3 construct: made in house; host or cells: baculovirus / insect cells
# How it was run: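 APMA-activated MMP (proenzyme purified on heparin agarose and chelating zinc columns) incubated at room temperature with 4 uM fluorogenic MCA-ProLeuGlyLeuDpaAlaArgNH2 substrate. Inhibition read as reduced fluorescence versus inhibitor concentration relative to a DMSO control, giving IC50.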
Compound,IC50 (Recombinant human MMP-1),IC50 (Recombinant human MMP-2; read-out: MMP-2 IC50),IC50 (Recombinant human MMP-13),IC50 (Recombinant human MMP-2; MMP-2 IC50(nM))
O=C(C1CCN(c2ccc(S(=O)(=O)C3(C(=O)NO)CCOCC3)cc2)CC1)N1CCN(CCO)CC1 [Example 10],> 10000 nM,6000 nM,40 nM,
Cc1cc(C(=O)C2CCN(c3ccc(S(=O)(=O)C4(C(=O)NO)CCN(C5CC5)CC4)cc3)CC2)ccc1Cl [Example 214],> 10000 nM,160 nM,1.7 nM,
CC(C)CCOc1ccc(C(=O)C2CCN(c3ccc(S(=O)(=O)C4(C(=O)NO)CCN(C5CC5)CC4)cc3)CC2)cc1 [Example 217],> 10000 nM,270 nM,1.3 nM,
COCCN1CCC(C(=O)NO)(S(=O)(=O)c2ccc(N3CCC(C(=O)c4ccc(CC5CCCCC5)cc4)CC3)cc2)CC1 [Example 203],2370 nM,816 nM,0.6 nM,
CCc1ccc(C(=O)C2CCN(c3ccc(S(=O)(=O)C4(C(=O)NO)CCN(CCOC)CC4)cc3)CC2)cc1 [Example 212],> 10000 nM,110 nM,0.2 nM,
COCCN1CCC(C(=O)NO)(S(=O)(=O)c2ccc(N3CCC(C(=O)c4ccc(CCC5CCCC5)cc4)CC3)cc2)CC1 [Example 204],> 10000 nM,1050 nM,0.2 nM,
CC(C)Cc1ccc(C(=O)C2CCN(c3ccc(S(=O)(=O)C4(C(=O)NO)CCN(C5CC5)CC4)cc3)CC2)cc1 [Example 189],> 10000 nM,258 nM,< 0.1 nM,
CCN1CCC(C(=O)NO)(S(=O)(=O)c2ccc(N3CCC(C(=O)c4ccc(CCC5CCCC5)cc4)CC3)cc2)CC1 [Example 237],> 10000 nM,1910 nM,2.1 nM,
COCCN1CCC(C(=O)NO)(S(=O)(=O)c2ccc(N3CCC(C(=O)c4ccc(CC(C)C)cc4)CC3)cc2)CC1 [Example 218],> 10000 nM,75.7 nM,0.2 nM,
CCN1CCC(C(=O)NO)(S(=O)(=O)c2ccc(N3CCC(C(=O)c4ccc(CCC(C)O)cc4)CC3)cc2)CC1 (stereo not drawn) [Example 248],> 10000 nM,141 nM,0.6 nM,
Cc1ccc(Cl)cc1N1CCN(C(=O)C2CCN(c3ccc(S(=O)(=O)C4(C(=O)NO)CCOCC4)cc3)CC2)CC1 [Example 6],> 10000 nM,> 10000 nM,18.1 nM,
CCCCc1ccc(C(=O)C2CCN(c3ccc(S(=O)(=O)C4(C(=O)NO)CCN(CCOC)CC4)cc3)CC2)s1 [Example 121],> 10000 nM,58.8 nM,0.1 nM,
CC(=O)N1CCN(C(=O)C2CCN(c3ccc(S(=O)(=O)C4(C(=O)NO)CCOCC4)cc3)CC2)CC1 [Example 8],> 10000 nM,,50 nM,2500 nM
O=C(c1ccc(CCC2CCCC2)cc1)C1CCN(c2ccc(S(=O)(=O)C3(C(=O)NO)CCOCC3)cc2)CC1 [Example 381],> 10000 nM,640 nM,3.5 nM,
CC(=O)c1ccc(N2CCN(C(=O)C3CCN(c4ccc(S(=O)(=O)C5(C(=O)NO)CCOCC5)cc4)CC3)CC2)cc1 [Example 24],> 10000 nM,,6.7 nM,700 nM
O=C(c1ccc(CC2CCCC2)cc1)C1CCN(c2ccc(S(=O)(=O)C3(C(=O)NO)CCN(C4CC4)CC3)cc2)CC1 [Example 197],> 10000 nM,1720 nM,1.4 nM,
O=C(NO)C1(S(=O)(=O)c2ccc(N3CCC(c4ccc(F)cc4)CC3)cc2)CCN(CC2CC2)CC1 [Example 263],> 10000 nM,2.6 nM,1.5 nM,
CCC(CC)Cc1ccc(C(=O)C2CCN(c3ccc(S(=O)(=O)C4(C(=O)NO)CCN(CC)CC4)cc3)CC2)cc1 [Example 234],> 10000 nM,2440 nM,7.5 nM,
Cc1cc(C(=O)C2CCN(c3ccc(S(=O)(=O)C4(C(=O)NO)CCN(S(C)(=O)=O)CC4)cc3)CC2)ccc1Cl [Example 219],> 10000 nM,258 nM,4.9 nM,
O=C(NO)C1(S(=O)(=O)c2ccc(N3CCC(c4ccc(Cl)cc4)CC3)cc2)CCN(C2CC2)CC1 [Example 270],> 10000 nM,1.9 nM,1.1 nM,
